Reference: patent publication US20190343908A1, “Therapeutic Combination for the Treatment of Cancer” (Nerium Biotechnology Inc., priority 2011, published 2019)

How the values were obtained:
[1] = system: T47D (human breast cancer); test: Sulforhodamine B viability assay, T47D; type: cell-based; set-up: key: absorbance (optical density) at 570 nm, second wavelength subtracted
Description: (§1) Three different viability assays were chosen to complement each other and yielded results dependent on concentration and cell line: the Methyl Tetrazolium dye assay, the Sulforhodamine B fluorescent dye assay, and the Crystal Violet dye assay.
The Sulforhodamine B and Crystal Violet assays provide information about protein and were used to complement the Methyl-Tetrazolium dye assay. […] It is used for the quantification of cellular proteins of cultured cells. The assay using Crystal Violet, a dye that binds electrostatically to proteins and stains DNA, provides a reliable, simple assay for measuring viability of cells.
(§2) The Methyl Tetrazolium, Sulforhodamine B, and Crystal Violet assays were used to assess cell viabilities. The incubation times were 24 hours, 48 hours, and 72 hours. The Nerium oleander extract Anvirzel™ (a hot water extract of oleander obtained from Salud Integral, Honduras) was tested in concentrations ranging from 0.01 ng/mL to 10 ng/mL.
(§3) Cells were detached by trypsinization (Trypsin-0.25% EDTA, Invitrogen, 25200-072) during the logarithmic phase of culture growth and plated in 96-well plates (18.000 cells/well) (Corning, Costar 359) in a final volume of 200 μl of medium per well. […] The absorbance was measured after 24 hours, 48 hours, and 72 hours of incubation.
For the Sulforhodamine B assay, 96-well plates were fixed by 10% trichloroacetic acid (Fluka, 91228) and were incubated at 4° C. for 1 hour. Afterwards, plates were rinsed with water and cells were stained with 0.4% Sulforhodamine B (Sigma, 341738), dissolved in 1% acetic acid (Carlo Ebra, 401422) for 15 minutes at room temperature (RT). The unbound stain was washed twice with 1% acetic acid. Finally, 10 mM Tris Buffer pH 10.5 (Sigma, T6791) was added to dissolve the dye.
(§4) The optical density of each plate was measured on a μQuant spectrophotometer and the data were analyzed with Gen5 software (μQuant Biomolecular Spectrophotometer MQX200 and Gen5™ Microplate Data Collection & Analysis software, BioTek® Instruments. Inc, April 2008). Absorbance was measured at 570 nm for all assays and a second wavelength was measured in order to subtract noise. For the Methyl-Tetrazolium assay this second wavelength was 630 nm and for the Sulforhodamine B and Crystal Violet assays it was 690 nm.

[2] = system: COR-L 105 (non-small cell lung carcinoma); test: Methyl-Tetrazolium viability assay, COR-L 105; type: cell-based, human; set-up: key to MTT Average: absorbance (optical density) at 570 nm, second wavelength subtracted; details: for MTT Average 24 h / MTT Average 48 h / MTT Average 72 h: COR-L 105, Run 3
Description: as §1
The Methyl-Tetrazolium dye assay measures the activity of enzymes in mitochondria. The dye precursor is taken up by cells, where it undergoes reduction to the purple formazan. It measures only the mitochondrial activity and, thus, it is not always a reliable indication of whether the cells themselves are alive or dead, since even a recently dead cell has […] enzyme activity in mitochondria. Intracellular glucose concentration, pH, and time before assay all affect the measurements.
as §2, §3
For the Methyl-Tetrazolium assay, the dye (Sigma, M2128; 5 mg/mL, diluted in phosphate-buffered saline) was added to each well and plates were incubated for 3 hours at 37° C. After the end of the incubation period, the medium was discarded and the cells were rinsed with phosphate-buffered saline. Finally, the formazan crystals were dissolved in dimethylsulphoxide (Sigma, D4540).
as §4

N.N.[Cl][Pt][Cl] [cisplatin]
SRB Average ([1]; T47D Run 1, 24 h, 1 μg/ml CDDP): 1.786 | SRB Average ([1]; T47D Run 1, 24 h, 10 μg/ml CDDP): 1.586 | SRB Average ([1]; T47D Run 1, 24 h, 100 μg/ml CDDP): 1.494 | SRB Average ([1]; T47D Run 1, 48 h, 0.1 μg/ml CDDP): 2.029 | SRB Average ([1]; T47D Run 1, 48 h, 1 μg/ml CDDP): 1.913 | SRB Average ([1]; T47D Run 1, 48 h, 10 μg/ml CDDP): 1.768 | SRB Average ([1]; T47D Run 1, 72 h, 0.1 μg/ml CDDP): 2.34 | SRB Average ([1]; T47D Run 1, 72 h, 1 μg/ml CDDP): 1.863 | SRB Average ([1]; T47D Run 1, 72 h, 10 μg/ml CDDP): 1.428 | SRB Average ([1]; T47D Run 2, 24 h, 0.1 μg/ml CDDP): 2.474 | SRB Average ([1]; T47D Run 2, 24 h, 1 μg/ml CDDP): 1.601 | SRB Average ([1]; T47D Run 2, 24 h, 10 μg/ml CDDP): 1.417 | SRB Average ([1]; T47D Run 2, 24 h, 100 μg/ml CDDP): 1.102 | SRB Average ([1]; T47D Run 2, 48 h, 0.1 μg/ml CDDP): 2.112 | SRB Average ([1]; T47D Run 2, 48 h, 1 μg/ml CDDP): 1.969 | SRB Average ([1]; T47D Run 2, 48 h, 10 μg/ml CDDP): 1.988 | SRB Average ([1]; T47D Run 2, 48 h, 100 μg/ml CDDP): 1.708 | SRB Average ([1]; T47D Run 2, 72 h, 0.1 μg/ml CDDP): 1.969 | SRB Average ([1]; T47D Run 2, 72 h, 1 μg/ml CDDP): 1.201 | SRB Average ([1]; T47D Run 2, 72 h, 10 μg/ml CDDP): 1.567 | SRB Average ([1]; T47D Run 2, 72 h, 100 μg/ml CDDP): 1.513 | SRB Average ([1]; T47D Run 3, 24 h, 0.1 μg/ml CDDP): 1.615 | SRB Average ([1]; T47D Run 3, 24 h, 1 μg/ml CDDP): 1.846 | SRB Average ([1]; T47D Run 3, 24 h, 10 μg/ml CDDP): 1.368 | SRB Average ([1]; T47D Run 3, 24 h, 100 μg/ml CDDP): 1.34 | SRB Average ([1]; T47D Run 3, 48 h, 0.1 μg/ml CDDP): 2.223 | SRB Average ([1]; T47D Run 3, 48 h, 1 μg/ml CDDP): 2.03 | SRB Average ([1]; T47D Run 3, 48 h, 10 μg/ml CDDP): 1.974 | SRB Average ([1]; T47D Run 3, 48 h, 100 μg/ml CDDP): 1.758 | SRB Average ([1]; T47D Run 3, 72 h, 0.1 μg/ml CDDP): 2.044 | SRB Average ([1]; T47D Run 3, 72 h, 1 μg/ml CDDP): 1.344 | SRB Average ([1]; T47D Run 3, 72 h, 10 μg/ml CDDP): 1.461 | MTT Average 24 h ([2]; 0.1 μg/ml CDDP): 0.056 | MTT Average 48 h ([2]; 0.1 μg/ml CDDP): 0.069 | MTT Average 72 h ([2]; 0.1 μg/ml CDDP): 0.088 | MTT Average 24 h ([2]; 1 μg/ml CDDP): 0.02 | MTT Average 48 h ([2]; 1 μg/ml CDDP): 0.018 | MTT Average 72 h ([2]; 1 μg/ml CDDP): 0.012 | MTT Average 24 h ([2]; 10 μg/ml CDDP): 0.039 | MTT Average 48 h ([2]; 10 μg/ml CDDP): 0.023 | MTT Average 72 h ([2]; 10 μg/ml CDDP): 0.01 | MTT Average 24 h ([2]; 100 μg/ml CDDP): 0.019 | MTT Average 48 h ([2]; 100 μg/ml CDDP): 0.018 | MTT Average 72 h ([2]; 100 μg/ml CDDP): 0.009 | MTT Average ([2]; Run 1, 24 h, 0.1 μg/ml CDDP): 0.083 | MTT Average ([2]; Run 1, 24 h, 1 μg/ml CDDP): 0.023 | MTT Average ([2]; Run 1, 24 h, 10 μg/ml CDDP): 0.057 | MTT Average ([2]; Run 1, 24 h, 100 μg/ml CDDP): 0.015 | MTT Average ([2]; Run 1, 48 h, 0.1 μg/ml CDDP): 0.099 | MTT Average ([2]; Run 1, 48 h, 1 μg/ml CDDP): 0.018 | MTT Average ([2]; Run 1, 48 h, 10 μg/ml CDDP): 0.023 | MTT Average ([2]; Run 1, 48 h, 100 μg/ml CDDP): 0.016 | MTT Average ([2]; Run 1, 72 h, 0.1 μg/ml CDDP): 0.056 | MTT Average ([2]; Run 1, 72 h, 1 μg/ml CDDP): 0.017 | MTT Average ([2]; Run 1, 72 h, 10 μg/ml CDDP): 0.021 | MTT Average ([2]; Run 1, 72 h, 100 μg/ml CDDP): 0.018 | MTT Average ([2]; Run 2, 24 h, 0.1 μg/ml CDDP): 0.056 | MTT Average ([2]; Run 2, 24 h, 1 μg/ml CDDP): 0.02 | MTT Average ([2]; Run 2, 24 h, 10 μg/ml CDDP): 0.039 | MTT Average ([2]; Run 2, 24 h, 100 μg/ml CDDP): 0.019 | MTT Average ([2]; Run 2, 48 h, 0.1 μg/ml CDDP): 0.069 | MTT Average ([2]; Run 2, 48 h, 1 μg/ml CDDP): 0.018 | MTT Average ([2]; Run 2, 48 h, 10 μg/ml CDDP): 0.023 | MTT Average ([2]; Run 2, 48 h, 100 μg/ml CDDP): 0.018 | MTT Average ([2]; Run 2, 72 h, 0.1 μg/ml CDDP): 0.088 | MTT Average ([2]; Run 2, 72 h, 1 μg/ml CDDP): 0.012 | MTT Average ([2]; Run 2, 72 h, 10 μg/ml CDDP): 0.01 | MTT Average ([2]; Run 2, 72 h, 100 μg/ml CDDP): 0.009
